Laboratory results reported in the NIST ThermoML archive (doi:10.1021/je060093l).

Tests used:
[1] = refractive index (Na D-line) (dimensionless); conditions: 298.15 K; 101.33 kPa; Liquid; Standard Abbe refractometry
[2] = Liquid, Ebulliometric method (Recirculating still)

Cc1ccccc1C [1,2-dimethylbenzene]
Conditions | refractive index
[1] | 1.5026

CCCS [1-propanethiol]
[2]
Conditions | vapor or sublimation pressure [kPa]
310.52 K | 34.6
315.47 K | 41.96
320.68 K | 51.03
325.73 K | 61.23
330.38 K | 72.02
334.62 K | 83.15
337.03 K | 90.03
340.63 K | 101.19

Conditions | refractive index
[1] | 1.4353

CCSCC [3-thiapentane]
[2]
Conditions | vapor or sublimation pressure [kPa]
333.82 K | 35.84
338.63 K | 42.73
344.7 K | 52.89
350.02 K | 63.3
353.56 K | 71.09
358.41 K | 83.03
361.02 K | 90.03
361.03 K | 90.03
365.05 K | 101.92

Conditions | refractive index
[1] | 1.44

c1ccsc1 [thiophene]
[2]
Conditions | vapor or sublimation pressure [kPa]
328.01 K | 37.5
331.52 K | 42.75
337.52 K | 53.02
341.13 K | 60.12
346.44 K | 71.92
350.46 K | 82.01
353.38 K | 90.03
356.73 K | 99.99

Conditions | refractive index
[1] | 1.5255

Cc1ccccc1 [toluene]
[2]
Conditions | vapor or sublimation pressure [kPa]
352.64 K | 38.32
356.84 K | 44.23
361.31 K | 51.31
367.88 K | 63.37
372.12 K | 72.27
375.63 K | 80.42
379.44 K | 90.03
379.45 K | 90.03

Conditions | refractive index
[1] | 1.4939
